Tests used:
[1] = target: T1, EtfAB:bcd (crotonyl-CoA-dependent NADH:ferredoxin oxidoreductase), NADH site on the bifurcating FAD of EtfAB (Megasphaera elsdenii, UniProt G0VLZ5+G0VLZ6); assay: stopped-flow at […] nm, hyperbolic fit of kobs of bf FAD reduction; assay type: biochemical; details: oxidized complex, 6.5 μM; 50 mM Tris-HCl, 150 mM NaCl, pH 7.5, 10 °C; anaerobic; no ferredoxin or crotonyl-CoA; fast phase (bf FAD); read-out: apparent Kd
T1 construct: gene MELS_2127; full-length recombinant EtfAB and bcd, each with C-terminal Strep-II tag, E. coli BL21, mixed equimolar; assignment of Mels_2126 to EtfA and Mels_2127 to EtfB is inferred from the printed order; with Electron transfer flavoprotein subunit alpha; Acyl-CoA dehydrogenase, short-chain specific (butyryl-CoA dehydrogenase)
T1 sequence (G0VLZ6 1-270): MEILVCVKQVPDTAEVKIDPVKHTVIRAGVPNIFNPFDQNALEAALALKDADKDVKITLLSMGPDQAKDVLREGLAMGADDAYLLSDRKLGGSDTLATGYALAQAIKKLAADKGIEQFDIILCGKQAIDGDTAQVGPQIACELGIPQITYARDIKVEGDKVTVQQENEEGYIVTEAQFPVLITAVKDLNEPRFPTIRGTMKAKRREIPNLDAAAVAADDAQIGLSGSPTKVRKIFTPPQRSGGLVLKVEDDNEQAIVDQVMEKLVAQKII
T1 sequence (G0VLZ5 1-338): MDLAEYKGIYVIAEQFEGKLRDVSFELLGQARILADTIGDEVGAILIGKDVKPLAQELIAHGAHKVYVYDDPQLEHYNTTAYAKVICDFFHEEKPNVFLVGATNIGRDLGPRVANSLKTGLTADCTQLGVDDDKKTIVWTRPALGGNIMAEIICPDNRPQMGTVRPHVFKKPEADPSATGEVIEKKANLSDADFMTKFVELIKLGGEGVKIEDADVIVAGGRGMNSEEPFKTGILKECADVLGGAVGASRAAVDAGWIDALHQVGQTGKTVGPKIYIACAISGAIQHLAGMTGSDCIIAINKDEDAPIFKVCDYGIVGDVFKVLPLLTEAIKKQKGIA
T1 sequence (G0VLZ7 1-383 partner): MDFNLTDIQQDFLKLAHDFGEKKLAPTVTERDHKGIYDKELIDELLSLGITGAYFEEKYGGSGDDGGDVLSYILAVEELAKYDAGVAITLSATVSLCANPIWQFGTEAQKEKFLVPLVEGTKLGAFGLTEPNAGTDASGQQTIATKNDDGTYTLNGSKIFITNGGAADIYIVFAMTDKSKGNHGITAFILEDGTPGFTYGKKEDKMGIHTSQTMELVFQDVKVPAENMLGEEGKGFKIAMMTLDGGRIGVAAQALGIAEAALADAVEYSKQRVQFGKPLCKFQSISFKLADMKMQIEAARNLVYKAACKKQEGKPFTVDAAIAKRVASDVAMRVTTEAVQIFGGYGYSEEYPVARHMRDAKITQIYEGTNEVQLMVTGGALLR

[2] = target: T2, EtfAB:bcd (crotonyl-CoA-dependent NADH:ferredoxin oxidoreductase), crotonyl-CoA site on bcd (Megasphaera elsdenii, UniProt G0VLZ7); assay: stopped-flow reoxidation of dithionite-reduced complex; charge-transfer absorbance; oxidative titration; assay type: biochemical; details: fully reduced EtfAB:bcd; 50 mM Tris-HCl, 150 mM NaCl, pH 7.5, 10 °C; anaerobic; no ferredoxin
T2 construct: gene MELS_2128; same complex as P1; bcd freed of persulfide-CoA adduct by dithionite; C-terminal Strep-II tags, E. coli BL21; with Electron transfer flavoprotein subunit alpha; Electron transfer flavoprotein subunit beta
T2 sequence (G0VLZ7 1-383): T1 sequence (G0VLZ7 1-383 partner)
T2 sequence (G0VLZ5 1-338 partner): T1 sequence (G0VLZ5 1-338)
T2 sequence (G0VLZ6 1-270 partner): T1 sequence (G0VLZ6 1-270)

Kd [1] [µM] | Compound | stopped-flow reoxidation of dithionite-reduced complex; charge-transfer absorban [2]
43 | NC(=O)C1=CN([C@@H]2O[C@H](COP(=O)(O)OP(=O)(O)OC[C@H]3O[C@@H](n4cnc5c(N)ncnc54)[C@H](O)[C@@H]3O)[C@@H](O)[C@H]2O)C=CC1 [NADH] | –
– | C/C=C/C(=O)SCCNC(=O)CCNC(=O)[C@H](O)C(C)(C)COP(=O)(O)OP(=O)(O)OC[C@H]1O[C@@H](n2cnc3c(N)ncnc32)[C@H](O)[C@@H]1OP(=O)(O)O [crotonyl-CoA] | reoxidation of dithionite-reduced EtfAB:bcd6e- by crotonyl-CoA, which exhibits a [crotonyl-CoA]-independent rate constant

From publication PMC11480532, “The rapid-reaction kinetics of an electron-bifurcating flavoprotein, the crotonyl-CoA-dependent NADH:ferredoxin oxidoreductase EtfAB:bcd” (The Journal of Biological Chemistry, 2024)
